Assay results as given in ChEMBL document CHEMBL1201862, “PubChem BioAssay data set” (2004).
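Exposure lasted 48 hours, with cells grown in 96-well plates and compounds tested at five concentrations. The concentration for 50% growth inhibition is given as GI50.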 Activity calls are given as the source filed them. Rule as the data show it: active = GI50 up to about 1.1 µM and inactive = higher.

How the values were obtained:
Assay in all cases: NCI tumour cell line growth inhibition, 48 h
COLO 205 = tested on: COLO 205
HCT-116 = tested on: HCT-116
HL-60 = tested on: HL-60
HOP-62 = tested on: HOP-62
HOP-92 = tested on: HOP-92
Hs-578T = tested on: Hs-578T
IGROV-1 = tested on: IGROV-1
MDA-MB-231 = tested on: MDA-MB-231
NCI-H226 = tested on: NCI-H226
NCI/ADR-RES = tested on: NCI/ADR-RES
OVCAR-4 = tested on: OVCAR-4
OVCAR-8 = tested on: OVCAR-8
RPMI-8226 = tested on: RPMI-8226
RXF 393 = tested on: RXF 393
SF-268 = tested on: SF-268
SN12C = tested on: SN12C
SNB-19 = tested on: SNB-19
SR = tested on: SR
SW-620 = tested on: SW-620
U-251 = tested on: U-251

| SMILES | GI50 (COLO 205) | GI50 (HCT-116) | GI50 (HL-60) | GI50 (HOP-62) | GI50 (HOP-92) | GI50 (Hs-578T) | GI50 (IGROV-1) | GI50 (MDA-MB-231) | GI50 (NCI-H226) | GI50 (NCI/ADR-RES) | GI50 (OVCAR-4) | GI50 (OVCAR-8) | GI50 (RPMI-8226) | GI50 (RXF 393) | GI50 (SF-268) | GI50 (SN12C) | GI50 (SNB-19) | GI50 (SR) | GI50 (SW-620) | GI50 (U-251) |
| --- | --- | --- | --- | --- | --- | --- | --- | --- | --- | --- | --- | --- | --- | --- | --- | --- | --- | --- | --- | --- |
| CN1Cc2cc(O)c(O)cc2C(O)C1 (configuration not stated) | > 100 µM (inactive) | > 100 µM (inactive) | 38.3 µM (inactive) | > 100 µM (inactive) | > 100 µM (inactive) | > 100 µM (inactive) | > 100 µM (inactive) | > 100 µM (inactive) | > 100 µM (inactive) | > 100 µM (inactive) | > 100 µM (inactive) | > 100 µM (inactive) | > 100 µM (inactive) | > 100 µM (inactive) | > 100 µM (inactive) | > 100 µM (inactive) | > 100 µM (inactive) | 1.19 µM (inactive) | > 100 µM (inactive) | > 100 µM (inactive) |
| CCCCCCCCCCCCCCCCCCNc1ccn(C2OC(COP(=O)(O)OCC3OC(n4cc(C)c(=O)[nH]c4=O)CC3O)C(O)C2O)c(=O)n1 (configuration not stated) | 14.9 µM (inactive) | 17.1 µM (inactive) | – | 16.7 µM (inactive) | 29.9 µM (inactive) | 19.4 µM (inactive) | – | 14.6 µM (inactive) | 23.7 µM (inactive) | 15.8 µM (inactive) | 15.1 µM (inactive) | 17.8 µM (inactive) | 16.1 µM (inactive) | 12 µM (inactive) | 17.4 µM (inactive) | 17.7 µM (inactive) | 15.4 µM (inactive) | 11.9 µM (inactive) | 15.2 µM (inactive) | 18.9 µM (inactive) |
| C[N+]1(CCCC[N+]2(C)CCCCCCC2)CCCCCCC1 | – | > 100 µM (inactive) | > 100 µM (inactive) | > 100 µM (inactive) | 77.1 µM (inactive) | 0.227 µM (active) | > 100 µM (inactive) | > 100 µM (inactive) | > 100 µM (inactive) | > 100 µM (inactive) | > 100 µM (inactive) | > 100 µM (inactive) | > 100 µM (inactive) | > 100 µM (inactive) | > 100 µM (inactive) | > 100 µM (inactive) | > 100 µM (inactive) | > 100 µM (inactive) | > 100 µM (inactive) | > 100 µM (inactive) |
| CCOC(=O)c1c(SCc2ccccc2)nc2c3ccccc3ccn12 | > 100 µM (inactive) | > 100 µM (inactive) | > 100 µM (inactive) | 40.1 µM (inactive) | 1.72 µM (inactive) | 21.4 µM (inactive) | 38.9 µM (inactive) | > 100 µM (inactive) | 33.7 µM (inactive) | > 100 µM (inactive) | 56 µM (inactive) | 83.6 µM (inactive) | > 100 µM (inactive) | 70.6 µM (inactive) | 94 µM (inactive) | > 100 µM (inactive) | – | 47 µM (inactive) | > 100 µM (inactive) | 57.7 µM (inactive) |
| COc1cc(/C=C2/SC(c3ccccc3)N(c3cccc(Cl)c3)C2=O)cc(OC)c1OC (configuration not stated) | 56.1 µM (inactive) | 15.3 µM (inactive) | 29.8 µM (inactive) | 39.8 µM (inactive) | 23.6 µM (inactive) | 47 µM (inactive) | – | 67 µM (inactive) | 42.7 µM (inactive) | 17.1 µM (inactive) | 41 µM (inactive) | 23.1 µM (inactive) | 16.2 µM (inactive) | 15.9 µM (inactive) | 21 µM (inactive) | 17.5 µM (inactive) | 27.9 µM (inactive) | 10.8 µM (inactive) | 28.6 µM (inactive) | 27.6 µM (inactive) |
| CC1(C)CC(C2=NCCO2)CC(C)(C)N1 | > 100 µM (inactive) | > 100 µM (inactive) | > 100 µM (inactive) | > 100 µM (inactive) | > 100 µM (inactive) | > 100 µM (inactive) | > 100 µM (inactive) | > 100 µM (inactive) | > 100 µM (inactive) | > 100 µM (inactive) | > 100 µM (inactive) | > 100 µM (inactive) | > 100 µM (inactive) | > 100 µM (inactive) | > 100 µM (inactive) | > 100 µM (inactive) | > 100 µM (inactive) | > 100 µM (inactive) | – | > 100 µM (inactive) |
| O=c1[nH]cnc2c1ncn2[C@H]1CO[C@@H](CO)[C@@H]1O | > 100 µM (inactive) | > 100 µM (inactive) | – | > 100 µM (inactive) | > 100 µM (inactive) | > 100 µM (inactive) | > 100 µM (inactive) | > 100 µM (inactive) | > 100 µM (inactive) | > 100 µM (inactive) | > 100 µM (inactive) | – | > 100 µM (inactive) | > 100 µM (inactive) | > 100 µM (inactive) | > 100 µM (inactive) | – | > 100 µM (inactive) | > 100 µM (inactive) | > 100 µM (inactive) |
| Cc1ccc(S(=O)(=O)n2cc(-c3cc(C(F)(F)F)ccn3)c3cc(Br)ccc32)cc1 | 59.2 µM (inactive) | 14.5 µM (inactive) | > 100 µM (inactive) | 11.8 µM (inactive) | 13.7 µM (inactive) | 15 µM (inactive) | – | 17.3 µM (inactive) | 19 µM (inactive) | 34.2 µM (inactive) | 12.3 µM (inactive) | – | 69.2 µM (inactive) | 17.8 µM (inactive) | 27.4 µM (inactive) | 28.3 µM (inactive) | 16 µM (inactive) | 54.6 µM (inactive) | 74.6 µM (inactive) | 15.5 µM (inactive) |
| O=C1C(Cl)C(c2cc3cc(Br)ccc3nc2Cl)N1c1c(Cl)cccc1Cl (configuration not stated) | > 25 µM (inactive) | 9.12 µM (inactive) | 8.24 µM (inactive) | > 25 µM (inactive) | 9.79 µM (inactive) | > 25 µM (inactive) | 6.9 µM (inactive) | 19.3 µM (inactive) | 15.8 µM (inactive) | 12.3 µM (inactive) | 5.46 µM (inactive) | 10.8 µM (inactive) | 6.78 µM (inactive) | 9.91 µM (inactive) | 11.7 µM (inactive) | 16.6 µM (inactive) | > 25 µM (inactive) | 4.78 µM (inactive) | 11.6 µM (inactive) | – |
| CC(C)(CC1(C)NC(=O)NC1=O)OCc1ccccc1 (configuration not stated) | – | > 100 µM (inactive) | < 0.01 µM (active) | > 100 µM (inactive) | > 100 µM (inactive) | > 100 µM (inactive) | > 100 µM (inactive) | > 100 µM (inactive) | – | > 100 µM (inactive) | > 100 µM (inactive) | > 100 µM (inactive) | > 100 µM (inactive) | > 100 µM (inactive) | > 100 µM (inactive) | > 100 µM (inactive) | > 100 µM (inactive) | > 100 µM (inactive) | > 100 µM (inactive) | > 100 µM (inactive) |
| O=c1n(-c2ccccc2)c(=O)n2n1C1C=CC2CCCCCC1 | > 100 µM (inactive) | > 100 µM (inactive) | 29.4 µM (inactive) | > 100 µM (inactive) | > 100 µM (inactive) | 36.1 µM (inactive) | > 100 µM (inactive) | > 100 µM (inactive) | > 100 µM (inactive) | > 100 µM (inactive) | > 100 µM (inactive) | > 100 µM (inactive) | 60 µM (inactive) | – | > 100 µM (inactive) | > 100 µM (inactive) | > 100 µM (inactive) | > 100 µM (inactive) | > 100 µM (inactive) | > 100 µM (inactive) |
| COc1ccc(/C=N/NC(=O)c2ccc(O)c(CN(C)C)c2)cc1 | > 100 µM (inactive) | > 100 µM (inactive) | > 100 µM (inactive) | > 100 µM (inactive) | 57 µM (inactive) | > 100 µM (inactive) | > 100 µM (inactive) | > 100 µM (inactive) | > 100 µM (inactive) | > 100 µM (inactive) | > 100 µM (inactive) | > 100 µM (inactive) | – | > 100 µM (inactive) | > 100 µM (inactive) | > 100 µM (inactive) | > 100 µM (inactive) | > 100 µM (inactive) | > 100 µM (inactive) | > 100 µM (inactive) |
| NC(=O)N/N=C1\CC2C3CC4C2C4C13 (configuration not stated) | > 100 µM (inactive) | > 100 µM (inactive) | > 100 µM (inactive) | > 100 µM (inactive) | > 100 µM (inactive) | > 100 µM (inactive) | > 100 µM (inactive) | > 100 µM (inactive) | > 100 µM (inactive) | > 100 µM (inactive) | 91 µM (inactive) | > 100 µM (inactive) | > 100 µM (inactive) | – | > 100 µM (inactive) | > 100 µM (inactive) | > 100 µM (inactive) | > 100 µM (inactive) | > 100 µM (inactive) | > 100 µM (inactive) |
| Cc1cc(C)c2c(n1)S(=O)(=O)N(CCCN1CCN(c3cccc(C(F)(F)F)c3)CC1)C(C(=O)c1ccc(Cl)cc1)=C2O | 1.84 µM (inactive) | 2.81 µM (inactive) | 1.87 µM (inactive) | 5.81 µM (inactive) | 2.5 µM (inactive) | 5.55 µM (inactive) | 3.26 µM (inactive) | 4.4 µM (inactive) | 2.45 µM (inactive) | 2.12 µM (inactive) | 3.06 µM (inactive) | 3.83 µM (inactive) | – | 4.34 µM (inactive) | 3.69 µM (inactive) | 2.02 µM (inactive) | 2.2 µM (inactive) | 0.507 µM (active) | 3.69 µM (inactive) | 2.65 µM (inactive) |
